Measured values published in patent US10987359B2, “Oxadiazepinone derivatives and methods of treating hepatitis B infections” (priority 2016, dated 2021).

These compounds were tested on HBV (assay: HBV replication inhibition assay (BDNA assay) in HepG2.2.15 cells). Details: HBV replication assay (BDNA assay), HepG2.2.15 cells; read-out: DNA EC50.
Type: cell-based
Description: HBV replication inhibition by the disclosed compounds were determined in cells infected or transfected with HBV or cells with stably integrated HBV, such as HepG2.2.15 cells (Sells et al. 1987). In this example, HepG2.2.15 cells were maintained in cell culture medium containing 10% fetal bovine serum (FBS), Geneticin, L-glutamine, penicillin and streptomycin. HepG2.2.15 cells were seeded in 96-well plates at a density of 40,000 cells/well and were treated with serially diluted compounds at a final DMSO concentration of 0.5% either alone or in combination by adding drugs in a checker box format. Cells were incubated with compounds for three days, after which medium was removed and fresh medium containing compounds was added to cells and incubated for another three days. At day 6, supernatant was removed and treated with DNase at 37° C. for 60 minutes, followed by enzyme inactivation at 75° C. for 15 minutes. Encapsidated HBV DNA was released from the virions and covalently linked HBV polymerase by incubating in lysis buffer (Affymetrix QS0010) containing 2.5 μg proteinase K at 50° C. for 40 minutes. HBV DNA was denatured by addition of 0.2 M NaOH and detected using a branched DNA (BDNA) QuantiGene assay kit according to manufacturer recommendation (Affymetrix). HBV DNA levels were also quantified using qPCR, based on amplification of encapsidated HBV DNA extraction with QuickExtraction Solution (Epicentre Biotechnologies) and amplification of HBV DNA using HBV specific PCR probes that can hybridize to HBV DNA and a fluorescently labeled probe for quantitation. In addition, cell viability of HepG2.2.15 cells incubated with test compounds alone or in combination was determined by using CellTitre-Glo reagent according to the manufacturer protocol (Promega). The mean background signal from wells containing only culture medium was subtracted from all other samples, and percent inhibition at each compound concentration was calculated by normalizing to signals from HepG2.2.15 cells treated with 0.5% DMSO using equation E1. % inhibition=(DMSOave−Xi)/DMSOave×100% E1: […]
where DMSOave is the mean signal calculated from the wells that were treated with DMSO control (0% inhibition control) and Xi is the signal measured from the individual wells. EC50 values, effective concentrations that achieved 50% inhibitory effect, were determined by non-linear fitting using Graphpad Prism software (San Diego, Calif.) and equation E2: Y=Y min+(Y max−Y min)/(1+10(Log EC50−X)×HillSlope) E2: […]
where Y represents percent inhibition values and X represents the logarithm of compound concentrations.
Selected disclosed compounds were assayed in the HBV replication assay (BDNA assay), as described above, and a representative group of these active compounds is shown in Table 7. […] In Table 7, “A” represents 1<EC50≤100; “B” represents 100<EC50≤500; “C” represents 500<EC50≤1000; and “D” represents EC50>1000.

Row | Compound | EC50 [nM]
1 | C[C@@H]1Cc2nn3c(c2CN1C(=O)Nc1cc(Br)c(F)cc1F)C(=O)N(C)OC(COCC(F)F)C3 (single isomer, unassigned) [Compound 108_D2, (4R*,9R)—N-(5-bromo-2,4-difluorophenyl)-4-((2,2-difluoroethoxy)methyl)-2,9-dimethyl-1-oxo-1,4,5,8,9,11-hexahydropyrido[4′,3′:3,4]pyrazolo[5,1-d][1,2,5]oxadiazepine-10(2H)-carboxamide] | 1 to 100
2 | CNC(=O)C1Cn2nc3c(c2C(=O)N(C)O1)CN(C(=O)Nc1ccc(F)c(Cl)c1F)[C@H](C)C3 (single isomer, unassigned) [Compound 110_D1, (4S*,9R)—N10-(3-chloro-2,4-difluorophenyl)-N4,2,9-trimethyl-1-oxo-1,4,5,8,9,11-hexahydropyrido[4′,3′:3,4]pyrazolo[5,1-d][1,2,5]oxadiazepine-4,10(2H)-dicarboxamide] | 500 to 1000
3 | CNC(=O)C1Cn2nc3c(c2C(=O)N(C)O1)CN(C(=O)Nc1ccc(F)c(Cl)c1F)[C@H](C)C3 (single isomer, unassigned) [Compound 110_D2, (4R*,9R)—N10-(3-chloro-2,4-difluorophenyl)-N4,2,9-trimethyl-1-oxo-1,4,5,8,9,11-hexahydropyrido[4′,3′:3,4]pyrazolo[5,1-d][1,2,5]oxadiazepine-4,10(2H)-dicarboxamide] | 1 to 100

Same assay, conditions: Hepatitis B virus, HepG2.2.15, HBV replication assay (BDNA assay), HepG2.2.15 cells; read-out: DNA EC50

Row | Compound | EC50 [nM]
4 | C[C@@H]1Cc2nn3c(c2CN1C(=O)Nc1ccc(F)c(C#N)c1)C(=O)N(C)OC(CN)C3 (single isomer, unassigned) [Compound 115_D1, (4S*,9R)-4-(aminomethyl)-N-(3-cyano-4-fluorophenyl)-2,9-dimethyl-1-oxo-1,4,5,8,9,11-hexahydropyrido[4′,3′:3,4]pyrazolo[5,1-d][1,2,5]oxadiazepine-10(2H)-carboxamide] | 1 to 100
5 | C[C@@H]1Cc2nn3c(c2CN1C(=O)Nc1ccc(F)c(Cl)c1)C(=O)N(C)OC(COCC(F)F)C3 (single isomer, unassigned) [Compound 121_D1, (4S*,9R)—N-(3-chloro-4-fluorophenyl)-4-((2,2-difluoroethoxy)methyl)-2,9-dimethyl-1-oxo-1,4,5,8,9,11-hexahydropyrido[4′,3′:3,4]pyrazolo[5,1-d][1,2,5]oxadiazepine-10(2H)-carboxamide] | 1 to 100
6 | CN1OC(CO)Cn2nc3c(c2C1=O)CN(C(=O)Nc1cc(F)c(F)c(Cl)c1F)CC3 (single isomer, unassigned) [Compound 137_E1, (S*)—N-(3-chloro-2,4,5-trifluorophenyl)-4-(hydroxymethyl)-2-methyl-1-oxo-1,4,5,8,9,11-hexahydropyrido[4′,3′:3,4]pyrazolo[5,1-d][1,2,5]oxadiazepine-10(2H)-carboxamide] | 1 to 100
7 | CN1OC(CO)Cn2nc3c(c2C1=O)CN(C(=O)Nc1c(F)ccc(Cl)c1F)CC3 (single isomer, unassigned) [Compound 138_E1, (S*)—N-(3-chloro-2,6-difluorophenyl)-4-(hydroxymethyl)-2-methyl-1-oxo-1,4,5,8,9,11-hexahydropyrido[4′,3′:3,4]pyrazolo[5,1-d][1,2,5]oxadiazepine-10(2H)-carboxamide] | 100 to 500
8 | CN1OC(CO)Cn2nc3c(c2C1=O)CN(C(=O)Nc1cc(Cl)ccc1F)CC3 (single isomer, unassigned) [Compound 139_E1, (S*)—N-(5-chloro-2-fluorophenyl)-4-(hydroxymethyl)-2-methyl-1-oxo-1,4,5,8,9,11-hexahydropyrido[4′,3′:3,4]pyrazolo[5,1-d][1,2,5]oxadiazepine-10(2H)-carboxamide] | 1 to 100
9 | CN1OC(CO)Cn2nc3c(c2C1=O)CN(C(=O)Nc1cc(Br)cc(F)c1F)CC3 (single isomer, unassigned) [Compound 140_E1, (S*)—N-(5-bromo-2,3-difluorophenyl)-4-(hydroxymethyl)-2-methyl-1-oxo-1,4,5,8,9,11-hexahydropyrido[4′,3′:3,4]pyrazolo[5,1-d][1,2,5]oxadiazepine-10(2H)-carboxamide] | 1 to 100
10 | CN1OC(CO)Cn2nc3c(c2C1=O)CN(C(=O)Nc1cc(Br)ccc1F)CC3 (single isomer, unassigned) [Compound 141_E1, (S*)—N-(5-bromo-2-fluorophenyl)-4-(hydroxymethyl)-2-methyl-1-oxo-1,4,5,8,9,11-hexahydropyrido[4′,3′:3,4]pyrazolo[5,1-d][1,2,5]oxadiazepine-10(2H)-carboxamide] | 1 to 100
11 | Cc1c(F)ccc(NC(=O)N2CCc3nn4c(c3C2)C(=O)N(C)OC(CO)C4)c1F (single isomer, unassigned) [Compound 142_E1, (S*)—N-(2,4-difluoro-3-methylphenyl)-4-(hydroxymethyl)-2-methyl-1-oxo-1,4,5,8,9,11-hexahydropyrido[4′,3′:3,4]pyrazolo[5,1-d][1,2,5]oxadiazepine-10(2H)-carboxamide] | 1 to 100
12 | Cc1cc(NC(=O)N2CCc3nn4c(c3C2)C(=O)N(C)OC(CO)C4)c(F)cc1F (single isomer, unassigned) [Compound 143_E1, (S*)—N-(2,4-difluoro-5-methylphenyl)-4-(hydroxymethyl)-2-methyl-1-oxo-1,4,5,8,9,11-hexahydropyrido[4′,3′:3,4]pyrazolo[5,1-d][1,2,5]oxadiazepine-10(2H)-carboxamide] | 1 to 100
13 | Cc1c(F)c(F)cc(NC(=O)N2CCc3nn4c(c3C2)C(=O)N(C)OC(CO)C4)c1F (single isomer, unassigned) [Compound 144_E1, (S*)-4-(hydroxymethyl)-2-methyl-1-oxo-N-(2,4,5-trifluoro-3-methylphenyl)-1,4,5,8,9,11-hexahydropyrido[4′,3′:3,4]pyrazolo[5,1-d][1,2,5]oxadiazepine-10(2H)-carboxamide] | 1 to 100
14 | CN1OC(CO)Cn2nc3c(c2C1=O)CN(C(=O)Nc1cc(C#N)ccc1F)CC3 (single isomer, unassigned) [Compound 145_E1, (S*)—N-(5-cyano-2-fluorophenyl)-4-(hydroxymethyl)-2-methyl-1-oxo-1,4,5,8,9,11-hexahydropyrido[4′,3′:3,4]pyrazolo[5,1-d][1,2,5]oxadiazepine-10(2H)-carboxamide] | > 1000
15 | CN1OC(CO)Cn2nc3c(c2C1=O)CN(C(=O)Nc1cccc(C#N)c1F)CC3 (single isomer, unassigned) [Compound 146_E1, (S*)—N-(3-cyano-2-fluorophenyl)-4-(hydroxymethyl)-2-methyl-1-oxo-1,4,5,8,9,11-hexahydropyrido[4′,3′:3,4]pyrazolo[5,1-d][1,2,5]oxadiazepine-10(2H)-carboxamide] | 1 to 100
16 | CN1OC(CO)Cn2nc3c(c2C1=O)CN(C(=O)Nc1cc(C(F)(F)F)c(F)cc1F)CC3 (single isomer, unassigned) [Compound 147_E1, (S*)—N-(2,4-difluoro-5-(trifluoromethyl)phenyl)-4-(hydroxymethyl)-2-methyl-1-oxo-1,4,5,8,9,11-hexahydropyrido[4′,3′:3,4]pyrazolo[5,1-d][1,2,5]oxadiazepine-10(2H)-carboxamide] | 1 to 100
17 | CN1OC(CO)Cn2nc3c(c2C1=O)CN(C(=O)Nc1cc(C(F)(F)F)ccc1F)CC3 (single isomer, unassigned) [Compound 148_E1, (S*)—N-(2-fluoro-5-(trifluoromethyl)phenyl)-4-(hydroxymethyl)-2-methyl-1-oxo-1,4,5,8,9,11-hexahydropyrido[4′,3′:3,4]pyrazolo[5,1-d][1,2,5]oxadiazepine-10(2H)-carboxamide] | 100 to 500
18 | CN1OC(CO)Cn2nc3c(c2C1=O)CN(C(=O)Nc1ccc(F)c(C(F)(F)F)c1F)CC3 (single isomer, unassigned) [Compound 149_E1, (S*)—N-(2,4-difluoro-3-(trifluoromethyl)phenyl)-4-(hydroxymethyl)-2-methyl-1-oxo-1,4,5,8,9,11-hexahydropyrido[4′,3′:3,4]pyrazolo[5,1-d][1,2,5]oxadiazepine-10(2H)-carboxamide] | 1 to 100
19 | CN1OC(CO)Cn2nc3c(c2C1=O)CN(C(=O)Nc1cc(Br)ncc1F)CC3 (single isomer, unassigned) [Compound 150_E1, (S*)—N-(2-bromo-5-fluoropyridin-4-yl)-4-(hydroxymethyl)-2-methyl-1-oxo-1,4,5,8,9,11-hexahydropyrido[4′,3′:3,4]pyrazolo[5,1-d][1,2,5]oxadiazepine-10(2H)-carboxamide] | 1 to 100
